Laboratory results as given in patent US20050175535A1 (CV Therapeutics, Inc., priority 2000, published 2005).
pKi: −log10 of the molar value.

How the values were obtained:
[1] = target: A2A adenosine receptors (PC12 cells) (Rattus norvegicus, UniProt P30543); assay: Rate of decline of agonist-stimulated cAMP in PC12 cells after A2A antagonist SCH58261; conditions: agonist 1 μM, after addition of SCH58261 (20 μM)
[2] = target: human A2A adenosine receptors (Homo sapiens, UniProt P29274); assay: Competitive radioligand binding, [3H]ZM241385, HEK-hA2AAdoR membranes
Procedure: Each point represents the mean±SEM of triplicates pooled from at least three experiments.
ZM241385 was purchased from Tocris Cookson Ltd (Langford, Bristol, UK).
Competitive radiolabeling binding assays were performed to determine the binding affinities of the compounds of the invention for the adenosine receptor subtypes, A1, A2A, A2B and A3. Briefly, membrane suspensions, obtained from cells expressing either adenosine receptor subtypes A1, A2A, A2B or A3were incubated for 2 hours at room temperature in 50 mmol/L Tris-HCl buffer (pH 7.4) containing ADA (1U/mL). […] At the end of the incubation, free radioligand was separated from membrane-bound radioligand by filtration through Whatman GF/C glass fiber filters using a Brandel tissue harvester (Gaithersburg, Md.). Triplicate determinations were performed for each concentration of unlabelled compound.

[3] = Coronary blood flow and reversal time, intracoronary infusion in open-chest anesthetized pigs; assay type: in vivo; conditions: 50 ug/kg/min intracoronary
Procedure: The magnitude of the effect of A2A adenosine receptor agonists on coronary dilation and the duration of the effect was determined in pigs weighing 22-27 kg. […] In addition, animals were used in accordance with the guidelines of the University of Kentucky Institutional Animal Care and Use Protocol.
Anesthesia was maintained with additional sodium pentobarbital (1.5-2 mg/kg, i.v.) every 15-20 minutes. Animals were ventilated via a tracheotomy tube using a mixture of room air and 100% O2. Tidal volume, respiratory rate and fraction of O2 in inspired air were adjusted to maintain arterial blood gas (ABG) and pH values. […] Lactate Ringers solution was administered via an ear or femoral vein as an initial bolus of 300-400 ml followed by a continuous infusion at a rate of 5-7 ml/kg/hr. A catheter was inserted into the femoral artery to monitor arterial blood pressure.
The heart was exposed through a median sternotomy and suspended in a pericardial cradle. Left ventricular pressure (LVP) was measured with a 5F high fidelity pressure sensitive tip transducer (Millar Instruments, Houston, Tex.) placed in the left ventricular cavity via an apical incision and secured with a purse string suture. A segment of the left anterior descending coronary artery (LAD), proximal to the origin of the first diagonal branch, was dissected free of surrounding tissue. A transit time perivascular flow probe (Transonic Systems Inc., Ithaca, N.Y.) was placed around this segment to measure CBF. Proximal to the flow probe, a 24-gauge modified angiocatheter was inserted for intracoronary infusions. […] The A2A adenosine receptors agonists were administered intracoronary.
Relationship between affinity of various agonists for A2A adenosine receptor and the reversal time of their effect to increase coronary conductance was determined in pigs. Each experiment was preceded by a 30-minute stabilization period following the completion of all instrumentation of the animal. Baseline hemodynamic data were then recorded and an intracoronary infusion of an A2A Adenosine receptors agonist was initiated. Each infusion was maintained for 4-5 minutes to allow LAD CBF to reach a steady-state, after which the infusion was terminated. The times to recovery of CBF by 50% (t0.5) and 90% (t0.9) of the difference from peak effect to baseline CBF were recorded. Ten to 15 minutes after CBF returned to pre-drug values a second infusion with a different agonist was started. […] Hemodynamic measurements were made prior to and following the initiation of the phenylephrine infusion. The phenylephrine infusion rate was adjusted during and following the infusions of the adenosine receptor agonists to maintain arterial blood pressure within 5 mmHg of pre-infusion values. The effect of a maximum of three different agonists was determined in each experiment.

Sequence of human A2A adenosine receptors (P29274 whole entry, the tested form may be a part): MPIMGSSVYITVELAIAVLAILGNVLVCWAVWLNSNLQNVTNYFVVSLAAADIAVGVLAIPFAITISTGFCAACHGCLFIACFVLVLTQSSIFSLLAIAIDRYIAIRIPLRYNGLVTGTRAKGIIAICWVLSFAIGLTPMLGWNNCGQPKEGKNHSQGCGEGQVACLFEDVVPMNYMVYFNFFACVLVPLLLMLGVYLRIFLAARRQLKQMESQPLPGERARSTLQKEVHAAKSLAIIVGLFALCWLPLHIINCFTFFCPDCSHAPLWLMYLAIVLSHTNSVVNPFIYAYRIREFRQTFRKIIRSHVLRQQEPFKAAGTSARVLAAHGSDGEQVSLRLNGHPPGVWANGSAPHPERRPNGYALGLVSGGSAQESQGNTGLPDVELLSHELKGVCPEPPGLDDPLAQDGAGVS
Sequence of A2A adenosine receptors (PC12 cells) (P30543 whole entry): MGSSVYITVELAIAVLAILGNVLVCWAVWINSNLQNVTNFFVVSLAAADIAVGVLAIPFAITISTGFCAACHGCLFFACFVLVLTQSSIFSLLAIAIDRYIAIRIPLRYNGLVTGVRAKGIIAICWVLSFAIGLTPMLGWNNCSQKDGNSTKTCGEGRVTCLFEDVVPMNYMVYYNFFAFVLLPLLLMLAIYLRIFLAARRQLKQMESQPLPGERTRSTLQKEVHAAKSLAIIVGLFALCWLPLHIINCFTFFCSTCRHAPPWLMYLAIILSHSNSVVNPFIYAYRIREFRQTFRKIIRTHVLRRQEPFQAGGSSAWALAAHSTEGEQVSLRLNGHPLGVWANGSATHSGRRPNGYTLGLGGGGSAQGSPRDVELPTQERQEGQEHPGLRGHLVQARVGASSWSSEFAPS

t0.5, rate of decline of cAMP accumulated [1]: 1.9 ± 0.1 min
pKi ([2]; binding affinity in HEK cells expressing human A2A receptors (Ki)): 5.54
pKi ([2]; pKi ± SEM, HEK-hA2AAdoR, [3H]ZM241385): 5.54
SMILES: CCCCCn1cc(-c2nc(N)c3ncn(C4O[C@@H](CO)[C@H](O)[C@@H]4O)c3n2)cn1 (stereo partly drawn) [CVT-3033]
CBF (fold-increase) [3]: 3.33 ± 0.58 fold
t0.5 reversal of increase in coronary blood flow [3]: 3.1 ± 0.9 min
t0.9 reversal of increase in coronary blood flow [3]: 12.0 ± 1.0 min
